Source: patent publication US12310967B2, “Compositions and methods of treatment for neurological disorders comprising motor neuron diseases” (Gliapharm SA, priority 2017, dated 2025)

Tests used:
[1] = system: primary astrocytes; experiment: High throughput screening (HTS) for lactate secretion: acidification of extracellular medium (SNARF5); assay type: cell-based, mouse; set-up: key to Score / HTS Score (SNARF5) / Score_SNARF: fraction of plate positive-control activity (1 = 100%); conditions: for Score / Score_SNARF: Appendix I; for Score: CDC54K primary screening, relative to CCCP 2 uM; for Score / HTS Score (SNARF5): 10 uM, 90 min; for Score_SNARF: primary screening confirmation (SNARF5); for HTS Score (SNARF5): CDC54K library, relative to positive control CCCP 2 uM
How it was run: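 Mouse primary cortical astrocytes (DIV17) exposed to compounds at 10 uM final (1% DMSO) for 90 min in low-bicarbonate medium with SNARF-5F. Extracellular pH from 630/580 nm emission ratio (ex 480 nm); hits scored as % of CCCP 2 uM positive control, duplicate plates.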

[2] = system: primary astrocytes; experiment: Intracellular glycogen quantification; assay type: cell-based, mouse; conditions: CDC54K hits, 10 μM, 3 h
Method: For glycogen dosage, a protein dosage was first performed in order to assess whether harvested astrocytes from primary cell cultures yielded enough and equivalent amounts of proteins comparing each replicate, and to ensure that the obtained differences in glycogen quantities were due to drug action and not to inner protein quantities.
Astrocytes used for these dosages were previously grown in 6-well plates for 17 days and stimulated with Vehicle (DMSO) or drug of interest (1 μM to 100 μM) for 180 min, at 37° C. 5% CO2/95% air in D5030 complete medium. Medium was removed and replaced with 600 μl of 30 mM Tris HCl, and stored at −20° C.
Proteins were dosed using the micro BCA Protein Assay kit (Thermo Scientific), as described in the manufacturer's instructions. Briefly, thawed cells were sonicated and 5 μl aliquots were placed in a transparent 96-well plate, to which we added 25 μl 30 mM Tris HCl, 70 μl H2O and 100 μl of a BCA mix (made as described in manufacturer's guidelines). After a 120 min-incubation at 37° C., absorbance was measured with Safire 2 spectrophotometer at a wavelength of 562 nm, and protein quantities were determined from a standard curve of Bovine Serum Albumin (BSA).
Glycogen was quantified using a 250 μl-aliquot of the same stimulated, thawed, and sonicated cells. After an incubation period of 30 min at 90° C. and 400 rpm, 28 μl of an acetic acid/sodium acetate (both from Sigma) 0.1M pH 4.6 buffer was added to each aliquot, which was then separated in two. Each split aliquot received whether 5 μl of amyloglucosidase (Roche) or 5 μl H2O, and all cell solutions were incubated for 120 min in a shaking 37° C.-waterbath. After a centrifugation at 16'000G for 5 min, 20 μl of supernatant were placed 96-well plate, to which 150 μl of a mix containing 0.67 mM ATP (Roche), 0.67 mM NADP (Roche), 1.8% hexokinase/glucose-6-phosphate dehydrogenase (Roche) and 0.1M Tris Buffer-HCl/3.3 mM magnesium (Fluka)/pH 8.1 buffer was added. Fluorescence was measured with Safire 2 spectrophotometer (340 nm excitation/440 nm emission). Glycogen concentration was obtained by substracting glucose value of samples with amyloglucosidase to samples without amyloglucosidase, and were expressed relative to the amount of proteins previously determined.
Levels of intracellular glycogen in astrocytes were measured at 3 h after stimulation with 20 Hits from the Prestwick library (10 μM each), as shown in FIG. 2. n=6-10; Ctrl pos. is glutamate (0.5 mM). Statistical analysis consisted in ANOVA followed by Fisher LSD post-hoc test for pair-wise comparisons.
Statistical analysis consisted in ANOVA followed by Fisher LSD post-hoc test for pair-wise comparisons.

| Structure (SMILES) | Score [1] | Score_SNARF [1] | HTS Score (SNARF5) [1] | Glycogen (statistical significance of glycogen degradation) [2] |
| --- | --- | --- | --- | --- |
| CCc1ccc(S(=O)(=O)Nc2ccc3[nH]ncc3c2)cc1 [T5599014] | 0.5424 | 0.5778 | 0.542 | ns |
| CCn1nccc1-c1csc(S(=O)(=O)Nc2ccc(Cl)cc2F)c1 [L924-1031] | 0.9286 | 0.8713 | 0.929 | ** (** p<0.01) |
| CCc1nc(-c2csc(S(=O)(=O)NCc3ccc4c(c3)OCO4)c2)no1 [L287-0468] | 0.5971 | 0.6592 | 0.597 | ** (** p<0.01) |
| COc1cc(C)c(Cl)cc1S(=O)(=O)NCc1ccncc1 [T5580243] | 0.8528 | 0.8565 | 0.853 | ns |
| N#Cc1ccc(C(=O)N2CCC(Nc3ncnc4c3CCC4)C2)cc1 (stereo not drawn) [T636-2387] |  | 0.4809 | 0.445 | ns |
| CCc1ccc(S(=O)(=O)N2CCSC2c2ccc(OC)c(OC)c2)cc1 (stereo not drawn) [T5463586] | 0.7707 | 0.5553 | 0.77 | *** (*** p<0.001) |
| Cc1ccccc1NC(=O)C1CCCN(c2ncnc3oc(C)c(C)c23)C1 (stereo not drawn) [F228-0422] | 1.057 | 0.7702 | 1.058 | ** (** p<0.01) |
| Cc1nc2ccc(NS(=O)(=O)c3cccc(F)c3)cc2s1 [T6937001] | 0.8094 | 0.8557 | 0.809 | ns |
| CC(=O)N1CCc2sc(S(=O)(=O)N3CCN(c4ccccc4C)CC3)cc2C1 [P025-0159] | 0.9535 | 0.8007 | 0.953 | ns |
| CSc1cccc(NS(=O)(=O)c2ccc3onc(C(=O)N4CCCC4)c3c2)c1 [L995-0125] | 0.8545 | 0.8016 | 0.854 | ns |
| c1ccc2c(c1)CCN(c1ncnc3sccc13)C2 [T0517-8250] |  | 0.9124 |  | ns |
| O=C1CCCN1c1ccc(S(=O)(=O)Nc2cccc(/C=C/c3ccccn3)c2)cc1 [T5644989] | 0.6796 | 0.8385 | 0.68 | ** (** p<0.01) |
